The text below walks through data of publication PMC6832221 (Viruses, 2019).

Series [1] concerns genotype 2a HCV replication (Rluc-J6/JFH1). The experiment in a line: GT 2a luciferase reporter assay in Rluc-J6/JFH1 RNA-transfected Huh7.5 cells. The format is cell-based, Hepatitis C virus. On the technique in general: A reporter such as luciferase makes a cellular process visible.
The next series in a line: in vitro. The format is cell-based. Conditions: human; Table 1 summary; read-out: CC50 (M), GT 2a luciferase reporter assay.
Series [2] has as its system genotype 2a HCV replication (J6/JFH1). In words: GT 2a RT-PCR in J6/JFH1 RNA-transfected Huh7.5 cells. The format is cell-based, Hepatitis C virus.
Series [3] has as its system genotype 1b HCV replication (Bart79I). In words: GT 1b RT-PCR in Bart79I replicon Huh7.5 cells. The format is cell-based, Hepatitis C virus. A general note: In antiviral work, replicon cells carry a viral genome segment that copies itself.
Series [4] deals with HCV NS3 protein expression (genotype 2a). In words: GT 2a Western blot of HCV NS3 protein in J6/JFH1 RNA-transfected Huh7.5 cells. The format is cell-based, Hepatitis C virus. Conditions: for T1/2 (time required for 50% reduction of the HCV NS3 protein): compound at 10 μM, Western blot, Huh7.5-J6/JFH1 (genotype 2a). (In general: A western blot detects proteins with antibodies after separation by electrophoresis.)

The subject of series [5] is HCV NS3 protein level (genotype 1b). In words: GT 1b Western blot of HCV protein in Bart79I RNA-transfected Huh7.5 cells. The format is cell-based, Hepatitis C virus. As to conditions: for T1/2 (time for 50% reduction of HCV protein): compound at 10 μM, Western blot, Huh7.5-Bart79I (genotype 1b).
The target in series [6] is T1, genotype 1b HCV NS3 helicase (Hepatitis C virus genotype 1b, UniProt Q9WMX2).
T1 construct: 2 nM of HCV NS3 helicase in a total volume of 60 μL
In words: Graphene oxide (GO)-based NS3 helicase inhibition assay. The format is biochemical.

The test system of another series is HCV replication. Set-up: method as in ref 14 = [14]. As to conditions: previous study, cited from earlier work.
The conditions of series [7]: cited from earlier work.
The next series has as its system Huh7.5 cells. The experiment in a line: in vitro. The format is cell-based. Conditions: Table 1 summary; read-out: CC50 (M), GT 2a luciferase reporter assay.
The nature of series [8]: In vivo pharmacokinetic study of SVF in mice. As to conditions: male, ICR, mouse, plasma.
On the set-up of series [9]: method as in ref 25 = [25]. Conditions: mice; cited from earlier work.
On the set-up of series [10]: method as in ref 14 = [14]. Conditions: previous study; cited from earlier work.
The target in another series is viral helicase NS3. Set-up: method as in ref 14 = [14]. Conditions: previous study; cited from earlier work.
The mark [11] stands for this setting: Hepatitis C virus, GETYPE2A|GT2A, Huh7.5, read-out: EC50 (M), GT 2a luciferase reporter assay, Table 1 summary.
Where [12] appears, read: Hepatitis C virus, Huh7.5, read-out: EC50 (M), GT 1b Western blot.
Setting [13] is: read-out: EC50 (M), GT 2a RT-PCR, Table 1 summary.
Where [14] appears, read: read-out: EC50 (M), GT 1b RT-PCR, Table 1 summary.
The mark [15] stands for this setting: read-out: EC50 (M), GT 2a Western blot, Table 1 summary.

Each structure is given as a SMILES string. Where two headings read alike, the source gives them in different places.

T1 sequence (Q9WMX2 1027-1657): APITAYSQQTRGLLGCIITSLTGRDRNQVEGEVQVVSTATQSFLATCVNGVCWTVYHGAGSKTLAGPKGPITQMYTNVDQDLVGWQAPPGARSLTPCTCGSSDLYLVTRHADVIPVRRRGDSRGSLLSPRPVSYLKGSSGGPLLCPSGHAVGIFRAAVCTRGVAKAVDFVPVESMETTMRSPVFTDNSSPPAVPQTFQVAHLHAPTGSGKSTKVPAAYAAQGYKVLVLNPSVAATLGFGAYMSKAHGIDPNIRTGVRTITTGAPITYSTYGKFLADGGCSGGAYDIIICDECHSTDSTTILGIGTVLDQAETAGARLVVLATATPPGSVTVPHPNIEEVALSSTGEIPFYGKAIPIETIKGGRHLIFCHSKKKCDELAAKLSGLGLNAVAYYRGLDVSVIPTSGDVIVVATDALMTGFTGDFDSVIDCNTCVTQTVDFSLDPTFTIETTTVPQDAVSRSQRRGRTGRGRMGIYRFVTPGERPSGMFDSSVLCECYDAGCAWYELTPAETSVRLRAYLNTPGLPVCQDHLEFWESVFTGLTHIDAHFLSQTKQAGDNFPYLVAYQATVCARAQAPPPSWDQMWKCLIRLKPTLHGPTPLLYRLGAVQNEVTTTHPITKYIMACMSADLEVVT

As for `CC(=O)Oc1ccc(/C=C/c2cc(OC(C)=O)cc3c2C(c2cc(OC(C)=O)cc(OC(C)=O)c2)C(c2ccc(OC(C)=O)cc2)O3)cc1` (racemic) [SVF-5Ac, penta-acetylated (±)- -viniferin], the EC50 (usually the concentration giving half of the maximal effect) in [1] (setting [11]) worked out at 2.4e-06 M; in series [2] (Hepatitis C virus, GETYPE2A|GT2A, Huh7.5, read-out: EC50 (M), GT 2a RT-PCR, Table 1 summary) it was 4.7e-06 M; in series [3] (Hepatitis C virus, GETYPE1B|GT1B, Huh7.5, read-out: EC50 (M), GT 1b RT-PCR, Table 1 summary), 1.04e-05 M; in series [4] (Hepatitis C virus, GETYPE2A|GT2A, Huh7.5, read-out: EC50 (M), GT 2a Western blot, Table 1 summary) it was 1e-06 M; in series [5] (setting [12]), 8e-07 M. Further, the CC50 at 72 h in the series “in vitro” was above 1e-05 M. The “T1/2 (time required for 50% reduction of the HCV NS3 protein)” value in series [4] was above 72 h. Besides, the “T1/2 (time for 50% reduction of HCV protein)” value in series [5] is 29.6 h.
Consider `Oc1ccc(/C=C/c2cc(O)cc3c2C(c2cc(O)cc(O)c2)C(c2ccc(O)cc2)O3)cc1` (stereo not drawn) [EVF, (+)-ε-viniferin], for which the EC50 in [1] (setting [11]) was 1e-07 M; in [2] (setting [13]), 2.9e-06 M; in series [3] (setting [14]) it was 7e-06 M; in series [4] (setting [15]), 1.2e-06 M; in [5] (setting [12]), 9e-07 M. In addition, the “fold more antiviral activity than SVF” value in series [1] (genotype 2a renilla luciferase-based HCV replication assay) was found to be 2.0 fold; in series [2] (genotype 2a RT-PCR-based HCV replication assay), 3.2 fold. Also, in the series “in vitro”, the CC50 at 72 h is above 1e-05 M. The “T1/2 (time required for 50% reduction of the HCV NS3 protein)” value in [4] was found to be 35.1 h. The “T1/2 (time for 50% reduction of HCV protein)” value in series [5] came out at 58.2 h. For the same compound, the IC50 in series [6] (Cy5-dsDNA substrate, 2 nM HCV NS3 helicase, fluorescence Ex/Em 650/675 nm, read-out: IC50 (half maximal inhibitory concentration), NS3 helicase) came to 58.7 nM.
In the case of `Oc1ccc(/C=C/c2cc(O)cc(O)c2)cc1` [resveratrol, reference compound], the “dose-dependent increase of fluorescence (helicase inhibition)” value in series [6] (negative control, up to a concentration of 10 μM) is “did not”.
Consider `Oc1ccc(/C=C/c2cc(O)cc3c2C(c2cc(O)cc(O)c2)C(c2ccc(O)cc2)O3)cc1` (stereo not shown) [viniferin], for which the EC50 in the series on HCV replication (read-out: EC50 value for inhibiting HCV replication in vitro) was 1000 nM. The oral bioavailability result in series [7] is “less than 1%”.
As to `Oc1ccc(/C=C/c2cc(O)cc3c2C(c2cc(O)cc(O)c2)C(c2ccc(O)cc2)O3)cc1` (racemic) [SVF, (±)- -viniferin], the EC50 is 2e-07 M in series [1] (read-out: EC50 (M), GT 2a luciferase reporter assay, Table 1 summary); 9.3e-06 M in [2] (setting [13]); 1.7e-06 M in series [3] (setting [14]); 6.4e-06 M in [4] (setting [15]); 9e-07 M in series [5] (read-out: EC50 (M), GT 1b Western blot, Table 1 summary). The CC50 with Huh7.5 cells is above 1e-05 M. Further, in [4], the “T1/2 (time required for 50% reduction of the HCV NS3 protein)” value worked out at 37.1 h. Further, the “T1/2 (time for 50% reduction of HCV protein)” value in series [5] is 13.1 h. Further, the maximum concentration (Cmax) (as a rule, the maximum level reached in the sampled fluid or tissue) in series [8] (ip, intraperitoneal dose of 15 mg/kg, read-out: Cmax) worked out at 2130 ± 403 ng/mL; in [8] (oral dose of 50 mg/kg, read-out: mean Cmax) it was 53.5 ± 28.2 ng/mL. In addition, the Tmax (commonly the time from dosing to the highest level) in series [8] (oral dose of 50 mg/kg) was 0.375 h. Besides, the oral bioavailability result in [9] was “below 1%”.
Turning to `Oc1ccc([C@H]2Oc3cc(O)cc(/C=C/c4ccc5c(c4)[C@@H](c4cc(O)cc6c4[C@H](c4cc(O)cc(O)c4)[C@@H](c4ccc(O)cc4)O6)[C@H](c4ccc(O)cc4)O5)c3[C@@H]2c2cc(O)cc(O)c2)cc1` [vitisin B], in the series on HCV replication (read-out: EC50, anti-HCV activity), the half-maximal effective concentration (EC50) is 6 nM. The CC50 in series [10] is above 10000 nM. For the same compound, at viral helicase NS3, the IC50 was 3 nM.
